Test results taken from ChEMBL document CHEMBL3885861, “Open TG-GATES”.

Species: Rattus norvegicus
Assay: Open TG-GATES - Regimen: Daily Repeat
Assay type: toxicity, organism-based, Sprague-Dawley
Set-up: regimen Daily Repeat, gender Male, age 6 weeks
Conditions: in vivo, po, route gavage; for APTT / Bas / Eos / Fbg / Hb / Ht / Lym / MCH / MCHC / MCV / Mono / Neu / PT / Plat / RBC / Ret / WBC: tissue Blood; for LIVER: tissue Liver; for A/G / ALP / ALT / AST / BUN / CRE / Ca / Cl / DBIL / GLC / IP / K / LDH / Na / PL / RALB / TBIL / TC / TG / TP / gamma-GTP: tissue Plasma
[1] = 0 mg/kg, 72 h, dose level Control, time 3 day
[2] = 0 mg/kg, […], dose level Control, time 7 day
[3] = 0 mg/kg, […], dose level Control, time 14 day
[4] = 0 mg/kg, […], dose level Control, time 28 day
[5] = 5 mg/kg, 72 h, dose level Low, time 3 day
[6] = 5 mg/kg, […], dose level Low, time 7 day
[7] = 5 mg/kg, […], dose level Low, time 14 day
[8] = 5 mg/kg, […], dose level Low, time 28 day

C=C(C)[C@H]1Cc2c(ccc3c2O[C@@H]2COc4cc(OC)c(OC)cc4[C@@H]2C3=O)O1 [ROTENONE]
TERMINAL_BW [1]: 213.4 g
APTT [1]: 16 s
Bas [1]: 0%
Eos [1]: 1%
Fbg [1]: 211.8 mg/dL
Hb [1]: 13.2 g/dL
Ht [1]: 40.7%
Lym [1]: 77.8%
MCH [1]: 20.8 pg
MCHC [1]: 32.4%
MCV [1]: 64.1 fL
Mono [1]: 7.8%
Neu [1]: 14%
PT [1]: 11.8 s
Plat [1]: 118 x10_4/uL
RBC [1]: 635 x10_4/ul
Ret [1]: 6.1%
WBC [1]: 92.8 x10_2/uL
LIVER [1]: 10 g
A/G [1]: 2.3
ALP [1]: 1677.6 IU/L
ALT [1]: 37.8 IU/L
AST [1]: 67.4 IU/L
BUN [1]: 18 mg/dL
CRE [1]: 0.4 mg/dL
Ca [1]: 11.3 mg/dL
Cl [1]: 104.2 meq/L
DBIL [1]: 0.014 mg/dL
GLC [1]: 187.2 mg/dL
IP [1]: 7.1 mg/dL
K [1]: 4.4 meq/L
LDH [1]: 96.6 IU/L
Na [1]: 140.6 meq/L
PL [1]: 141.8 mg/dL
RALB [1]: 3.8 g/dL
TBIL [1]: 0.042 mg/dL
TC [1]: 77.6 mg/dL
TG [1]: 105 mg/dL
TP [1]: 5.5 g/dL
gamma-GTP [1]: 0.4 IU/L
TERMINAL_BW [2]: 254 g
TERMINAL_BW [3]: 305.5 g
TERMINAL_BW [4]: 378.4 g
APTT [2]: 15.9 s
Bas [2]: 0%
Eos [2]: 1%
Fbg [2]: 239.4 mg/dL
Hb [2]: 13.2 g/dL
Ht [2]: 40.2%
Lym [2]: 80%
MCH [2]: 21.1 pg
MCHC [2]: 32.8%
MCV [2]: 64.3 fL
Mono [2]: 6%
Neu [2]: 13.2%
PT [2]: 11.6 s
Plat [2]: 122.4 x10_4/uL
RBC [2]: 626.2 x10_4/ul
Ret [2]: 5.5%
WBC [2]: 113.8 x10_2/uL
APTT [3]: 14.9 s
Bas [3]: 0%
Eos [3]: 1%
Fbg [3]: 241.8 mg/dL
Hb [3]: 13.9 g/dL
Ht [3]: 41.9%
Lym [3]: 73.6%
MCH [3]: 20.5 pg
MCHC [3]: 33.1%
MCV [3]: 61.8 fL
Mono [3]: 4.6%
Neu [3]: 21%
PT [3]: 11.3 s
Plat [3]: 125.6 x10_4/uL
RBC [3]: 678.4 x10_4/ul
Ret [3]: 3.8%
WBC [3]: 106.4 x10_2/uL
APTT [4]: 18 s
Bas [4]: 0%
Eos [4]: 1%
Fbg [4]: 217.6 mg/dL
Hb [4]: 14.9 g/dL
Ht [4]: 45%
Lym [4]: 72%
MCH [4]: 19.7 pg
MCHC [4]: 33.1%
MCV [4]: 59.3 fL
Mono [4]: 7.2%
Neu [4]: 19.8%
PT [4]: 12.5 s
Plat [4]: 115 x10_4/uL
RBC [4]: 758.8 x10_4/ul
Ret [4]: 2%
WBC [4]: 107.2 x10_2/uL
LIVER [2]: 12.8 g
LIVER [3]: 14.2 g
LIVER [4]: 15.3 g
A/G [2]: 2.1
ALP [2]: 1286.8 IU/L
ALT [2]: 35.2 IU/L
AST [2]: 60.6 IU/L
BUN [2]: 19 mg/dL
CRE [2]: 0.4 mg/dL
Ca [2]: 11.5 mg/dL
Cl [2]: 104.6 meq/L
DBIL [2]: 0.014 mg/dL
GLC [2]: 195.4 mg/dL
IP [2]: 7.7 mg/dL
K [2]: 4.5 meq/L
LDH [2]: 71.8 IU/L
Na [2]: 140.4 meq/L
PL [2]: 157.2 mg/dL
RALB [2]: 3.9 g/dL
TBIL [2]: 0.034 mg/dL
TC [2]: 81.2 mg/dL
TG [2]: 132.2 mg/dL
TP [2]: 5.8 g/dL
gamma-GTP [2]: 1 IU/L
A/G [3]: 2.1
ALP [3]: 1512 IU/L
ALT [3]: 36.4 IU/L
AST [3]: 67.2 IU/L
BUN [3]: 18.4 mg/dL
CRE [3]: 0.4 mg/dL
Ca [3]: 11.5 mg/dL
Cl [3]: 104.8 meq/L
DBIL [3]: 0.01 mg/dL
GLC [3]: 186 mg/dL
IP [3]: 6.9 mg/dL
K [3]: 4.5 meq/L
LDH [3]: 111.6 IU/L
Na [3]: 139.6 meq/L
PL [3]: 156 mg/dL
RALB [3]: 4 g/dL
TBIL [3]: 0.03 mg/dL
TC [3]: 80 mg/dL
TG [3]: 131.8 mg/dL
TP [3]: 5.9 g/dL
gamma-GTP [3]: 1 IU/L
A/G [4]: 2
ALP [4]: 1248 IU/L
ALT [4]: 32.2 IU/L
AST [4]: 58.6 IU/L
BUN [4]: 18.2 mg/dL
CRE [4]: 0.4 mg/dL
Ca [4]: 10.9 mg/dL
Cl [4]: 106.8 meq/L
DBIL [4]: 0.01 mg/dL
GLC [4]: 182.2 mg/dL
IP [4]: 5.7 mg/dL
K [4]: 4.5 meq/L
LDH [4]: 62.8 IU/L
Na [4]: 141.2 meq/L
PL [4]: 134.8 mg/dL
RALB [4]: 3.8 g/dL
TBIL [4]: 0.03 mg/dL
TC [4]: 62 mg/dL
TG [4]: 182.2 mg/dL
TP [4]: 5.7 g/dL
gamma-GTP [4]: 1 IU/L
TERMINAL_BW [5]: 226.1 g
APTT [5]: 17.7 s
Bas [5]: 0%
Eos [5]: 1%
Fbg [5]: 212.2 mg/dL
Hb [5]: 13 g/dL
Ht [5]: 39.1%
Lym [5]: 76.2%
MCH [5]: 21.3 pg
MCHC [5]: 33.2%
MCV [5]: 64.1 fL
Mono [5]: 5.6%
Neu [5]: 17.2%
PT [5]: 12.1 s
Plat [5]: 129 x10_4/uL
RBC [5]: 610.6 x10_4/ul
Ret [5]: 7.7%
WBC [5]: 114.4 x10_2/uL
LIVER [5]: 11.2 g
A/G [5]: 2.2
ALP [5]: 1376 IU/L
ALT [5]: 37.2 IU/L
AST [5]: 67.4 IU/L
BUN [5]: 19.2 mg/dL
CRE [5]: 0.4 mg/dL
Ca [5]: 11.6 mg/dL
Cl [5]: 104.8 meq/L
DBIL [5]: 0.014 mg/dL
GLC [5]: 188.2 mg/dL
IP [5]: 7.5 mg/dL
K [5]: 4.5 meq/L
LDH [5]: 111.2 IU/L
Na [5]: 142.4 meq/L
PL [5]: 152.4 mg/dL
RALB [5]: 3.8 g/dL
TBIL [5]: 0.032 mg/dL
TC [5]: 85.6 mg/dL
TG [5]: 78 mg/dL
TP [5]: 5.6 g/dL
gamma-GTP [5]: 0.4 IU/L
TERMINAL_BW [6]: 258.8 g
TERMINAL_BW [7]: 318.2 g
TERMINAL_BW [8]: 393.8 g
APTT [6]: 15.9 s
Bas [6]: 0%
Eos [6]: 0.8%
Fbg [6]: 227.4 mg/dL
Hb [6]: 13.4 g/dL
Ht [6]: 40.6%
Lym [6]: 68.2%
MCH [6]: 21.5 pg
MCHC [6]: 33%
MCV [6]: 65.3 fL
Mono [6]: 9.6%
Neu [6]: 21.6%
PT [6]: 11.6 s
Plat [6]: 117.4 x10_4/uL
RBC [6]: 622.8 x10_4/ul
Ret [6]: 5.7%
WBC [6]: 93.6 x10_2/uL
APTT [7]: 15.7 s
Bas [7]: 0%
Eos [7]: 1%
Fbg [7]: 238.2 mg/dL
Hb [7]: 13.9 g/dL
Ht [7]: 41.7%
Lym [7]: 75.8%
MCH [7]: 20.6 pg
MCHC [7]: 33.2%
MCV [7]: 62.2 fL
Mono [7]: 5.2%
Neu [7]: 18.4%
PT [7]: 11.4 s
Plat [7]: 130.8 x10_4/uL
RBC [7]: 671.4 x10_4/ul
Ret [7]: 3.8%
WBC [7]: 138.2 x10_2/uL
APTT [8]: 19 s
Bas [8]: 0%
Eos [8]: 1.2%
Fbg [8]: 204.2 mg/dL
Hb [8]: 14.7 g/dL
Ht [8]: 44.3%
Lym [8]: 74.6%
MCH [8]: 19.3 pg
MCHC [8]: 33.2%
MCV [8]: 58.2 fL
Mono [8]: 5%
Neu [8]: 19.6%
PT [8]: 12.6 s
Plat [8]: 117.6 x10_4/uL
RBC [8]: 761.4 x10_4/ul
Ret [8]: 2.1%
WBC [8]: 107.4 x10_2/uL
LIVER [6]: 13.1 g
LIVER [7]: 15.3 g
LIVER [8]: 16.3 g
A/G [6]: 2.1
ALP [6]: 1367.8 IU/L
ALT [6]: 39.6 IU/L
AST [6]: 65 IU/L
BUN [6]: 18.2 mg/dL
CRE [6]: 0.4 mg/dL
Ca [6]: 11.7 mg/dL
Cl [6]: 103.2 meq/L
DBIL [6]: 0.018 mg/dL
GLC [6]: 202.2 mg/dL
IP [6]: 7.4 mg/dL
K [6]: 4.4 meq/L
LDH [6]: 110.6 IU/L
Na [6]: 140 meq/L
PL [6]: 150.8 mg/dL
RALB [6]: 3.8 g/dL
TBIL [6]: 0.04 mg/dL
TC [6]: 79.4 mg/dL
TG [6]: 106.6 mg/dL
TP [6]: 5.6 g/dL
gamma-GTP [6]: 0.6 IU/L
A/G [7]: 2.1
ALP [7]: 1397.6 IU/L
ALT [7]: 36.6 IU/L
AST [7]: 68 IU/L
BUN [7]: 19.4 mg/dL
CRE [7]: 0.4 mg/dL
Ca [7]: 11.8 mg/dL
Cl [7]: 105 meq/L
DBIL [7]: 0.012 mg/dL
GLC [7]: 188.6 mg/dL
IP [7]: 6.9 mg/dL
K [7]: 4.6 meq/L
LDH [7]: 142.4 IU/L
Na [7]: 139.2 meq/L
PL [7]: 164.2 mg/dL
RALB [7]: 3.9 g/dL
TBIL [7]: 0.03 mg/dL
TC [7]: 85.4 mg/dL
TG [7]: 152.4 mg/dL
TP [7]: 5.8 g/dL
gamma-GTP [7]: 1 IU/L
A/G [8]: 1.8
ALP [8]: 1025.4 IU/L
ALT [8]: 33 IU/L
AST [8]: 64.2 IU/L
BUN [8]: 18 mg/dL
CRE [8]: 0.4 mg/dL
Ca [8]: 10.7 mg/dL
Cl [8]: 105.8 meq/L
DBIL [8]: 0.01 mg/dL
GLC [8]: 175.2 mg/dL
IP [8]: 6.2 mg/dL
K [8]: 4.5 meq/L
LDH [8]: 101.8 IU/L
Na [8]: 141.2 meq/L
PL [8]: 134.8 mg/dL
RALB [8]: 3.8 g/dL
TBIL [8]: 0.032 mg/dL
TC [8]: 65.6 mg/dL
TG [8]: 143 mg/dL
TP [8]: 6 g/dL
gamma-GTP [8]: 1 IU/L
